Measured values from the supplement of paper PMC5908809.

Tests used:
[1] = tested on: normal NK cells expanded with K562-aAPC; test: percent inhibition of viability; higher = more inhibition; conditions: 72 h, IL-2 2.5 ng/mL
Experimental: (§1)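 Drug sensitivity and resistance testing on K562-aAPC-expanded normal NK cells: 5 concentrations (10-fold steps over a 10,000-fold range), 72 h at 37 °C, viability by CellTiter-Glo normalised to DMSO and benzethonium chloride controls; DSS from the fitted curve.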

DERL-7 (IL-2 2.5 ng/mL) [2] = test: as above; conditions: 72 h
IMC-1 (IL-2 20 ng/mL) [3] = test: as above; conditions: 72 h
KAI3 (IL-2 2.5 ng/mL) [4] = test: as above; conditions: 72 h
KHYG-1 (IL-2 2.5 ng/mL) [5] = test: as above; conditions: 72 h
NK-92 (IL-2 2.5 ng/mL) [6] = test: as above; conditions: 72 h
NK-YS (IL-2 2.5 ng/mL) [7] = test: as above; conditions: 72 h
NKL (IL-2 2.5 ng/mL) [8] = test: as above; conditions: 72 h
SNK-6 (IL-2 2.5 ng/mL) [9] = test: as above; conditions: 72 h
YT (IL-2 2.5 ng/mL) [10] = test: as above; conditions: 72 h
[11] = tested on: normal primary NK cells, pool 1 (3 donors) (IL-2 2.5 ng/mL); test: as above; conditions: 72 h
[12] = tested on: normal primary NK cells, pool 1 (3 donors), resting (IL-2 0 ng/mL); test: as above; conditions: 72 h
[13] = tested on: normal primary NK cells, pool 2 (3 donors) (IL-2 2.5 ng/mL); test: as above; conditions: 72 h
[14] = tested on: normal primary NK cells, pool 3 (3 donors) (IL-2 2.5 ng/mL); test: as above; conditions: 72 h
[15] = tested on: normal NK cells expanded with K562-aAPC; test: drug sensitivity score (DSS) (DSS units); higher = more sensitive; extreme values may be limits of the assay; conditions: 72 h; IL-2 2.5 ng/mL
Experimental: as §1

DERL-7 (IL-2 2.5 ng/mL) [16] = test: as above; conditions: 72 h
IMC-1 (IL-2 20 ng/mL) [17] = test: as above; conditions: 72 h
KAI3 (IL-2 2.5 ng/mL) [18] = test: as above; conditions: 72 h
KHYG-1 (IL-2 2.5 ng/mL) [19] = test: as above; conditions: 72 h
NK-92 (IL-2 2.5 ng/mL) [20] = test: as above; conditions: 72 h
NK-YS (IL-2 2.5 ng/mL) [21] = test: as above; conditions: 72 h
NKL (IL-2 2.5 ng/mL) [22] = test: as above; conditions: 72 h
SNK-6 (IL-2 2.5 ng/mL) [23] = test: as above; conditions: 72 h
YT (IL-2 2.5 ng/mL) [24] = test: as above; conditions: 72 h
[25] = tested on: normal primary NK cells, pool 1 (3 donors) (IL-2 2.5 ng/mL); test: as above; conditions: 72 h
[26] = tested on: normal primary NK cells, pool 1 (3 donors), resting (IL-2 0 ng/mL); test: as above; conditions: 72 h
[27] = tested on: normal primary NK cells, pool 2 (3 donors) (IL-2 2.5 ng/mL); test: as above; conditions: 72 h
[28] = tested on: normal primary NK cells, pool 3 (3 donors) (IL-2 2.5 ng/mL); test: as above; conditions: 72 h

NCC(=O)Nc1ccc(-n2nc(C(F)(F)F)cc2-c2ccc3c(ccc4ccccc43)c2)cc1 (max concentration tested 25000 nM)
percent inhibition of viability [%]
Conditions | 2.5 nM | 25 nM | 250 nM | 2500 nM | 25000 nM
DERL-7 (IL-2 2.5 ng/mL) [2] | -6.63 | 0.68 | 3.86 | -3.39 | 34.2
IMC-1 (IL-2 20 ng/mL) [3] | 1.94 | 6.76 | 5.99 | 19.6 | 101
KAI3 (IL-2 2.5 ng/mL) [4] | 13.1 | 14.3 | 13.5 | 14.9 | 104
KHYG-1 (IL-2 2.5 ng/mL) [5] | 9.05 | 11.9 | 21.5 | 43.8 | 84.5
NK-92 (IL-2 2.5 ng/mL) [6] | -3.92 | -7.91 | 18.1 | 14.3 | 106
NK-YS (IL-2 2.5 ng/mL) [7] | 2.51 | 6.9 | 13.3 | 53.1 | 101
NKL (IL-2 2.5 ng/mL) [8] | 9.41 | 11.2 | 10.1 | 18.2 | 76.8
SNK-6 (IL-2 2.5 ng/mL) [9] | 2.2 | 12.3 | 18 | 28 | 101
YT (IL-2 2.5 ng/mL) [10] | 8.95 | 9.77 | 11.9 | 10.6 | 104
[1] | 1.57 | 3.13 | 3.22 | 12.5 | 101
[11] | 4.23 | -5.3 | 6.37 | -4.79 | 24.2
[12] | -7.15 | -17.6 | -5.36 | -14.6 | 41.8
[13] | -4.35 | -2.12 | 12.8 | 2.37 | 102
[14] | -4.48 | -1.93 | 9.24 | 3.09 | 101

Conditions | drug sensitivity score
DERL-7 (IL-2 2.5 ng/mL) [16] | 1.36
IMC-1 (IL-2 20 ng/mL) [17] | 8.71
KAI3 (IL-2 2.5 ng/mL) [18] | 8.11
KHYG-1 (IL-2 2.5 ng/mL) [19] | 11.9
NK-92 (IL-2 2.5 ng/mL) [20] | 8.05
NK-YS (IL-2 2.5 ng/mL) [21] | 12.3
NKL (IL-2 2.5 ng/mL) [22] | 6.99
SNK-6 (IL-2 2.5 ng/mL) [23] | 9.36
YT (IL-2 2.5 ng/mL) [24] | 7.45
[15] | 7.63
[25] | 0.67
[26] | 1.49
[27] | 6.08
[28] | 6.06

CCS(=O)(=O)N1CC(CC#N)(n2cc(-c3ncnc4[nH]ccc34)cn2)C1 [Baricitinib] (max concentration tested 2500 nM)
percent inhibition of viability [%]
Conditions | 0.25 nM | 2.5 nM | 25 nM | 250 nM | 2500 nM
DERL-7 (IL-2 2.5 ng/mL) [2] | 2.21 | 8.22 | 35.1 | 77.5 | 101
IMC-1 (IL-2 20 ng/mL) [3] | -4.87 | -4.53 | -11.2 | 16.2 | 87.2
KAI3 (IL-2 2.5 ng/mL) [4] | 4.12 | 13.4 | 55.5 | 95.9 | 99.2
KHYG-1 (IL-2 2.5 ng/mL) [5] | -8.72 | 1.48 | 46.9 | 106 | 109
NK-92 (IL-2 2.5 ng/mL) [6] | -7.1 | -0.82 | 23.4 | 68 | 97.8
NK-YS (IL-2 2.5 ng/mL) [7] | -8.38 | -2.38 | 20.7 | 60.4 | 74.6
NKL (IL-2 2.5 ng/mL) [8] | 6.63 | 24.6 | 64.2 | 84.6 | 103
SNK-6 (IL-2 2.5 ng/mL) [9] | -16.6 | -24.9 | 5.7 | 64.8 | 68.9
YT (IL-2 2.5 ng/mL) [10] | -5.41 | -0.41 | 7.96 | 54.3 | 86.4
[1] | 0.8 | 2.05 | 31 | 89.9 | 99.7
[11] | -7.54 | 2.7 | 26.4 | 61.7 | 74.2
[12] | 0.1 | 4.62 | 4.85 | 2.89 | 12.1
[13] | -1.68 | 0.38 | 17.6 | 60.4 | 68.1
[14] | 2.14 | -2.13 | 9.5 | 48.8 | 70.4

Conditions | drug sensitivity score
DERL-7 (IL-2 2.5 ng/mL) [16] | 19
IMC-1 (IL-2 20 ng/mL) [17] | 7.47
KAI3 (IL-2 2.5 ng/mL) [18] | 24.6
KHYG-1 (IL-2 2.5 ng/mL) [19] | 23.9
NK-92 (IL-2 2.5 ng/mL) [20] | 15.6
NK-YS (IL-2 2.5 ng/mL) [21] | 13.7
NKL (IL-2 2.5 ng/mL) [22] | 26.3
SNK-6 (IL-2 2.5 ng/mL) [23] | 12.8
YT (IL-2 2.5 ng/mL) [24] | 11.6
[15] | 20.2
[25] | 14.7
[26] | 0
[27] | 13.3
[28] | 10.4

CN(c1ccccc1CNc1nc(Nc2ccc3c(c2)CC(=O)N3)ncc1C(F)(F)F)S(C)(=O)=O (max concentration tested 10000 nM)
percent inhibition of viability [%]
Conditions | 1 nM | 10 nM | 100 nM | 1000 nM | 10000 nM
DERL-7 (IL-2 2.5 ng/mL) [2] | -11.5 | 1.19 | -8.22 | 78.2 | 101
IMC-1 (IL-2 20 ng/mL) [3] | -8.05 | -9.43 | -5.71 | 42.5 | 100
KAI3 (IL-2 2.5 ng/mL) [4] | 2.15 | -4.73 | -2.81 | 30.6 | 106
KHYG-1 (IL-2 2.5 ng/mL) [5] | 3.44 | -1.15 | 1.69 | 81.4 | 109
NK-92 (IL-2 2.5 ng/mL) [6] | -16.5 | -24 | -36 | 20.4 | 108
NK-YS (IL-2 2.5 ng/mL) [7] | -1.08 | -5.55 | -3.8 | 48.1 | 106
NKL (IL-2 2.5 ng/mL) [8] | -5.61 | -8.98 | 4.68 | 65.6 | 109
SNK-6 (IL-2 2.5 ng/mL) [9] | -0.86 | -15.1 | -15.1 | 15.3 | 64.4
YT (IL-2 2.5 ng/mL) [10] | 0.31 | -4.2 | -5.3 | 27.2 | 109
[1] | -7.88 | -4.41 | -2.88 | 58 | 101
[11] | 4.57 | -5.98 | 14.5 | 42.7 | 99.6
[12] | -21.8 | -18.3 | -4.27 | -35.7 | 91.4
[13] | -24.5 | -16.5 | -8.34 | 20.1 | 98.1
[14] | -4.56 | -2.11 | -3.97 | 15.6 | 100

Conditions | drug sensitivity score
DERL-7 (IL-2 2.5 ng/mL) [16] | 14.4
IMC-1 (IL-2 20 ng/mL) [17] | 11.1
KAI3 (IL-2 2.5 ng/mL) [18] | 9.97
KHYG-1 (IL-2 2.5 ng/mL) [19] | 14.9
NK-92 (IL-2 2.5 ng/mL) [20] | 8.85
NK-YS (IL-2 2.5 ng/mL) [21] | 11.6
NKL (IL-2 2.5 ng/mL) [22] | 13.3
SNK-6 (IL-2 2.5 ng/mL) [23] | 5.93
YT (IL-2 2.5 ng/mL) [24] | 9.64
[15] | 12.4
[25] | 10.5
[26] | 3.72
[27] | 8.64
[28] | 8.12
